“Also recorded” adds a separate entry of the source.
Tests used:
[1] = tested on: COX-1; assay: T×B2 in washed platelets by GC/MS as a measure of COX activity; assay type: cell-based, human; conditions: 5 μM arachidonic acid 2 h; for effect on T×B2 levels: scavenger 1.5 mM; for inhibition at 100 µM: Homo sapiens, Platelet, read-out: inhibition of T×B2 levels
Procedure: (§1) In vitro platelet activation: Blood obtained from healthy volunteers was collected into vacuum tubes containing citrate, from a peripheral vein using a 21-gauge needle, and washed platelets were prepared as previously described (7). The platelets were counted with a Coulter counter and diluted with resuspension buffer to a final concentration of […], and aliquoted in volumes corresponding to 500 μl. The aliquots were preincubated for 40 min at room temperature with vehicle, the thromboxane synthase inhibitor ozagrel (100 μM), aspirin (100 μM) or the MDA scavengers, SA (1.5 mM) or 3-MoSA (1.5 mM). Next, arachidonic acid (5 μM) was added and the platelets were incubated for an additional 2 h at room temperature. The reactions were stopped by adding indomethacin (100 μM) and the aldehyde scavenger pyridoxamine (1 mM) for 30 min at 4° C., to inhibit all residual COX-1 activity and to prevent formation of MDA adducts on proteins during the purification process, respectively. An aliquot (5 μl) of sample was used for protein estimations using a BCA assay.
(§2) GC/NICI/MS quantification of thromboxane B2. Serum T×B2 (sT×B2) was measured as an indicator of inhibition of platelet COX activity from blood drawn into non-citrated vacuum tubes. Serum from patients was prepared by incubating the blood at 37° C. for 45 min and then centrifuged at 3,200×g for 15 min. Serum was separated and stored at −80° C. until analysis. For ex vivo experiment, 50 μl of washed platelets were used. sT×B2 was assayed by stable isotope dilution gas chromatography/mass spectrometry (GC/MS) with selective ion monitoring as described previously (10).

[2] = Rate of reactivity of the scavengers with MDA in vitro (HPLC); conditions: for formation of MDA adduct of the scavenger relative to MDA-lysine adduct: 37° C., 4 h, MDA ratio 1:1, 0.1 M phosphate pH 7.4, HPLC; for lysine-MDA adducts formation: Lysine and MDA incubated at 37° C. for 4 h in presence of scavenger
Procedure: Determination of the rate of reactivity of the scavengers with MDA in vitro. N^α-Acetyllysine with or without SA, 3-MoSA or 4-HoBA was incubated at 37° C. in the presence of MDA (ratio 1:1) in 0.1 M phosphate, pH 7.4. After 4 h, 10 μl aliquots were diluted to 200 μl with solvent A and analyzed by HPLC. Solvent A consisted to 20% methanol/0.2% formic acid and solvent B was 99.8% methanol/0.2% formic acid. The gradient was as follows: 0-1 min 100% A, 1-7 min 100-0% A, 7-14 min […]. Phenomenex Kinetex column at a flow rate of 0.2 ml/min and the absorbance at 280 nm were used.

[3] = tested on: RAW264.7 cells; assay: LG-lysyl adduct formation on histones in RAW264.7 cells; assay type: cell-based; conditions: 500 μM scavenger 45 min, 20 μM AA 1 h, COX-2 stimulated cells
Procedure: (A). Scavengers were screened in RAW264.7 cells for the ability to decrease LG adduct formation on histones. Scavengers used were glucosamine (GA), 3-methoxysalicylamine (3-MoSA), pentylpyridoxamine (PPM), and 5-ethylsalicylamine (EtSA). Cells were stimulated to express COX-2, pretreated 45 min. with 500 μM scavenger or vehicle (H2O), and given 20 μM AA for 1 h before lysing and extracting histones. Histone proteins were analyzed by LC/ESI/MS/MS for LG-lysyl lactam adduct, n=2.

[4] = tested on: Human platelets; assay: Inhibition of formation of LG adducts in platelets; assay type: cell-based; conditions: 1 mM compound, 10 μM dazoxiben 30 min, arachidonic acid 2 h
Procedure: Human platelets were pre-incubated with 10 μM dazoxiben, a thromboxane synthase inhibitor, and 1 mM of the specified compound or vehicle (control) for 30 min. After incubation, […] arachidonic acid was added for 2 h, and then the proteins were precipitated and digested to single amino acids by step-digestion with proteases. The daughter ions at m/z 332.1 and 84.1 for the lactam were monitored. Values are means±SD (n=9)*P<0.001 vs. control, +P<0.001 vs. 100 μM concentration.

[5] = tested on: human washed platelets; assay: Dilysyl-MDA crosslinks in arachidonic acid-activated human washed platelets (LC/MS/MS); assay type: cell-based; conditions: preincubation 40 min (ozagrel 100 μM, aspirin 100 μM, SA or 3-MoSA 1.5 mM), then 5 μM arachidonic acid 2 h
Procedure: as §1
Analysis of Protease-Derived Lysyl-MDA-Lysyl Crosslinks (Dilysyl-MDA Crosslinks) in Washed Platelets by LC/ESI/MS/MS. Samples (around 3 mg of protein) were digested with proteases as previously described for lysyl-lactam adducts (7). In summary, the samples were subsequently heated at 95° C. and allowed to cool at room temperature, before step digestion with pronase (1 mg) at 37° C. for 24 h. Pronase was inactivated by heating samples at 95° C. for 10 min and then cooled to room temperature. Then, 1 μl of […] aminopeptidase was added for every 1 mg of sample protein and incubated at 37° C. for 24 h. Five nanograms of ^13C6-dilysyl-MDA crosslink standard were added to each platelet sample and dilysyl-MDA crosslinks were purified using Oasis cartridge as described above in the section for the preparation of dilysyl-MDA Crosslink standard. The eluate was dried under nitrogen flow to a volume of 100 μl, diluted up to 1 ml with a 0.1% formic acid aqueous solution, and filtered using a 0.22 µm nylon Spin-x centrifuge tube spun at 6,000 rpm for 5 min. Samples were purified by HPLC through the Thermo Scientific Aquasil C18 column. The fractions containing the radioactivity were pooled, concentrated in Oasis HLB cartridge, and then dried under nitrogen to a final volume of 40 μl.
Pooled HPLC fractions concentrated using Oasis were analyzed by LC/MS/MS using an YMC OD-AQ column. […] The gradient was as follows: 0-5 min 100-0% A, 5-7 min 0% A, 7-9 min 0-100% A, 9-15 min 100% A, with a flow rate of 0.2 ml/min. The mass spectrometer was operated in the positive ion mode and the electrospray needle was maintained at 4000 V. Nitrogen was used for both the sheath and auxiliary gas at pressures of 30 and 5 arbitrary units, respectively. […] These settings were used during all experiments, including the validation procedure.

[6] = tested on: human washed platelets; assay: LC/MS/MS quantification of scavenger-MDA adducts from washed platelets; assay type: cell-based; conditions: 1.5 mM scavenger 40 min, then 5 μM arachidonic acid 2 h
Procedure: LC/MS/MS quantification of scavengers-MDA adducts from washed platelet. Washed platelets were activated as described above in the section “ex vivo activation”. The scavenger-MDA adducts were extracted three times with 500 μl of ethyl acetate from 50 μl of the reaction mixture, as described above. The extract was dried down, re-suspended in 100 μl of ACN-water (1:1, v/v), vortexed, and filtered through a 0.22-um spin X column. The reactions were analyzed by LC/MS/MS using the column and gradient as described above. The mass spectrometer was operated in the positive ion mode and the spray voltage was maintained at 5000 V. Nitrogen was used for the sheath gas and auxiliary gas at pressures of 30 and 5 arbitrary units, respectively. The optimized skimmer offset was set at 10, capillary temperature was 300° C. and the tube lens voltage for both compounds was set to 49. Selected reaction monitoring of specific transition ions for the precursor ions at m/z 178→106 (SA-MDA adduct) or m/z 208→136 (3-MoSA-MDA adduct) at −15 eV were used.

[7] = tested on: Human platelets; conditions: previously shown (ref 4); cited from earlier work
[8] = tested on: platelet COX1; assay: Serum T×B2 in patients with sickle cell disease (GC/MS); assay type: in vivo, human
Procedure: as §2

[9] = tested on: platelets of patients with SCD; assay: Platelet dilysyl-MDA crosslinks in patients with sickle cell disease; assay type: in vivo, human
Description: Sample collection. Written informed consent was obtained from study participants and human blood was obtained following a protocol approved by the Institutional Review Board of Vanderbilt University. Samples were obtained from three different populations: healthy subjects who had no component of the MetSyn or SCD, patients with MetSyn and patients with SCD. Patients with MetSyn were 35-75 year old and fit the MetSyn criteria in accord with the American Heart Association/National Heart, Lung, and Blood Institute criteria (6). Patients with SCD were 25-50 year old and were homozygous sickle (SS) or compound heterozygote with beta-thalassemia (Sβ-thal) phenotype. […]
In vivo platelet activation: Metabolic Syndrome and Sickle Cell patients. […] Accordingly, the levels of dilysyl-MDA crosslinks in platelets were measured in two conditions in which there is evidence of in vivo platelet activation, metabolic syndrome (MetSyn) (8, 9) and sickle cell disease (SCD) (8, 9), and compared to the levels in platelets from healthy subjects isolated from blood collected in the same conditions. […]
Analysis of Protease-Derived Lysyl-MDA-Lysyl Crosslinks (Dilysyl-MDA Crosslinks) in Washed Platelets by LC/ESI/MS/MS. […] The fractions containing the radioactivity were pooled, concentrated in Oasis HLB cartridge, and then dried under nitrogen to a final volume of 40 μl. […]

CC(=O)O.COc1cccc(CN)c1O [3-MoSA, 3-methoxysalicylamine acetate]
effect on T×B2 levels [1]: neither SA nor 3-MoSA significantly affected T×B2 levels | formation of MDA adduct of the scavenger relative to MDA-lysine adduct [2]: 15.1 fold | lysine-MDA adducts formation [2]: inhibited | effect on LG adducts of histones (nucleus) [3]: inactive | scavenging of LG adducts in the platelet [4]: active | levels of dilysyl-MDA crosslinks after platelet activation ([5]; acetate): decreased levels of dilysysl-MDA crosslinks to baseline levels; also recorded: prevent formation of MDA adducts of platelet proteins | formation of scavenger-MDA adducts in activated platelets [6]: concomitant appearance of the equivalent scavenger-MDA adduct

NCc1ccc(O)cc1 [4-HoBA, 4-hydroxybenzylamine, reference compound]
formation of MDA adduct of the scavenger relative to MDA-lysine adduct [2]: 0.6 fold

CCc1ccc(O)c(CN)c1 [EtSA, 5-ethylsalicylamine]
effect on LG adducts of histones (nucleus) [3]: blocks LG-lysyl adduct formation on histones | effect on LG adducts of histones (nucleus) ([3]; listed as 5-ethylsalicylamine): effective scavenger | levels of dilysyl-MDA crosslinks after platelet activation [5]: as effective as scavengers as was SA; also recorded: prevent formation of MDA adducts of platelet proteins

Cc1ccc(O)c(CN)c1 [MeSA, 5-methylsalicylamine]
levels of dilysyl-MDA crosslinks after platelet activation [5]: as effective as scavengers as was SA; also recorded: prevent formation of MDA adducts of platelet proteins

CC(=O)O.NCc1ccccc1O [SA, Salicylamine acetate]
effect on T×B2 levels [1]: neither SA nor 3-MoSA significantly affected T×B2 levels | formation of MDA adduct of the scavenger relative to MDA-lysine adduct [2]: 9.2 fold | lysine-MDA adducts formation [2]: inhibited | levels of dilysyl-MDA crosslinks after platelet activation ([5]; acetate): decreased levels of dilysysl-MDA crosslinks to baseline levels; also recorded: prevent formation of MDA adducts of platelet proteins | formation of levuglandinyl adducts of platelet proteins [7]: prevent formation of levuglandinyl adducts of platelet proteins | formation of scavenger-MDA adducts in activated platelets [6]: concomitant appearance of the equivalent scavenger-MDA adduct

CC(=O)Oc1ccccc1C(=O)O [aspirin, acetylsalicylic acid, reference compound]
inhibition at 100 µM [1]: 96% | levels of dilysyl-MDA crosslinks after platelet activation [5]: reduced levels of the dilysysl-MDA crosslink to baseline levels; also recorded: reduce the dilysyl-MDA crosslinks to the levels in non-activated platelets

O=C(c1ccccc1)c1ccc2n1CCC2C(=O)O (stereo not shown) [ketorolac]
levels of serum T×B2 ([8]; SCD patients during ketorolac treatment (from 219.7±183.1 ng/mL)): 68.9 ± 127.7 ng/mL | reduction in serum T×B2 ([8]; SCD patients, therapeutic use): 69% | levels of platelet dilysyl-MDA crosslinks ([9]; SCD patients treated with ketorolac during admission for vaso-occlusive crisis): 3.15±1.18 ng/mg of protein | reduction of platelet dilysyl-MDA crosslinks ([9]; therapeutic use in SCD patients): reduction of dilysyl-MDA crosslinks to the level found in normal platelets

O=C(O)/C=C/c1ccc(Cn2ccnc2)cc1 [ozagrel, reference compound]
inhibition at 100 µM [1]: 96% | levels of dilysyl-MDA crosslinks after platelet activation [5]: reduced levels of the dilysysl-MDA crosslink to baseline levels; also recorded: reduce the dilysyl-MDA crosslinks to the levels in non-activated platelets

pentylpyridoxamine [reference compound]
effect on LG adducts of histones (nucleus) [3]: only partially effective | scavenging of LG adducts in the platelet [4]: effective scavenger
